Experimental findings from US20200087314A1, “HISTONE DEACETYLASE INHIBITORS” (BIOMARIN PHARMACEUTICAL INC., priority 2016, published 2020) are described below.

Each structure is given as a SMILES string. Counter-ions that a name gives are not always drawn.

For the data set, the system named is Frataxin (FXN) mRNA expression. The data set can be described thus: Effect of HDAC inhibitors on frataxin (FXN) mRNA expression in iPSC derived neuronal cells (qRT-PCR). Conditions: iPSC derived neuronal cells differentiated 16 days, compound incubated 24 h. It is filed as cell-based. Here is the method: Effect of HDAC Inhibitors on Frataxin (FXN) mRNA Expression
Method: mRNA quantification of compound-treated iPSC derived neuronal cells Neuronal stem cells were cultured in Neurobasal A medium (Life technologies #10888022) supplemented with N2, B27 (Life technologies #17502-048 and #17504-044), L-glutamine (Life technologies #25030081), supplemented with 20 ng/ml EGF (R&D Systems #236-EG) and 20 ng/ml bFGF (BioPioneer # HRP-0011). Neuronal differentiation was initiated by removing growth factors and culturing cells in Neurobasal A with N2 and B27. Cells were allowed to differentiate for 16 days. HDAC inhibitory compound was then added and incubate for 24 h. RNA isolation was performed using the RNeasy Plus mini kit (QIAgen #74134) using a QIAcube instrument per manufacturer's instructions. qRT-PCR was performed using qScript One-Step SYBR Green qRT-PCR Kit (Quanta Biosciences 170-8893BR) with the following conditions: 20 minutes at 50° C., 5 minutes at 95° C., and then 40 cycles of 20 seconds at 95° C., 20 seconds at 55° C., 30 seconds at 72° C. The primer sequences to detect expression of FXN were: 5′-[…]-3′ and 5′-[…]-3′.
Data for additional compounds for iPSC fold inductions and cLogP are shown in Table 4 The ranges reported for cLogP refer to the following. A<1, 1<B<2, 2<C<3, 3<D<5, E>5. NA refers to “not available.”
In general terms: Quantitative PCR measures a nucleic acid by following its amplification.

On to `Nc1ccccc1NC(=O)c1ccc(CN2CCCN(CC3CC3)CC2)cc1` [Compound 485, N-(2-aminophenyl)-4-((4-(cyclopropylmethyl)-1,4-diazepan-1-yl)methyl) benzamide trihydrochloride], for which the “Fold Induction” value is reported as 2.2.

In the case of `CC(C)(O)CN1CCCN(Cc2ccc(C(=O)Nc3ccccc3N)cc2)CC1` [Compound 486, N-(2-aminophenyl)-4-((4-(2-hydroxy-2-methylpropyl)-1,4-diazepan-1-yl)methyl) benzamide], the “Fold Induction” value turned out to be 1.9.

Consider `C[C@@H]1CN(Cc2ccc(C(=O)Nc3ccccc3N)cc2)C[C@H](C)N1CC1CC1` [Compound 487, N-(2-aminophenyl)-4-(((3R,5S)-4-(cyclopropylmethyl)-3,5-dimethylpiperazin-1-yl)methyl)benzamide], for which the “Fold Induction” value came out at 1.3.

For the compound `C[C@@H]1CN(Cc2ccc(C(=O)Nc3ccccc3N)cc2)C[C@H](C)N1CC(C)(C)O` [Compound 488, N-(2-aminophenyl)-4-(((3R,5S)-4-(2-hydroxy-2-methylpropyl)-3,5-dimethylpiperazin-1-yl)methyl)benzamide], the “Fold Induction” value was 1.5.

As to `C[C@@H]1CN(CC2CC2)C[C@H](C)N1Cc1ccc(C(=O)Nc2ccccc2N)cc1` [Compound 489, N-(2-aminophenyl)-4-(((2R,6S)-4-(cyclopropylmethyl)-2,6-dimethylpiperazin-1-yl)methyl)benzamide], the “Fold Induction” value came to 1.5.

With `C[C@@H]1CN(CC(C)(C)O)C[C@H](C)N1Cc1ccc(C(=O)Nc2ccccc2N)cc1` [Compound 490, N-(2-aminophenyl)-4-(((2R,6S)-4-(2-hydroxy-2-methylpropyl)-2,6-dimethylpiperazin-1-yl)methyl)benzamide], the “Fold Induction” value was 1.4.

With `CC1(C)CN(CC2CC2)CCN1Cc1ccc(C(=O)Nc2ccccc2N)cc1` [Compound 491, N-(2-aminophenyl)-4-((4-(cyclopropylmethyl)-2,2-dimethylpiperazin-1-yl)methyl)benzamide], the “Fold Induction” value is on record as 1.7.

Turning to `CC(C)(O)CN1CCN(Cc2ccc(C(=O)Nc3ccccc3N)cc2)C(C)(C)C1` [Compound 492, N-(2-aminophenyl)-4-((4-(2-hydroxy-2-methylpropyl)-2,2-dimethylpiperazin-1-yl)methyl)benzamide], the “Fold Induction” value was found to be 1.2.

For `Nc1ccccc1NC(=O)c1ccc(CC2CCN(CC3CC3)C2)cc1` (stereo not drawn) [Compound 555, N-(2-aminophenyl)-4-((1-(cyclopropylmethyl)pyrrolidin-3-yl)methyl)benzamide], the “Fold Induction” value is listed as 1.11.
